In paper PMC7216583 (Parasites & Vectors, 2020):
Like-named read-outs stand apart in the source and are kept apart here.

Columns and labels:
[1] = tested on: Toxoplasma gondii RH-2F tachyzoites; assay: microbe, parasite or virus in culture; settings: 72 h
NaV1.8 channel = tested on: NaV1.8 channel; set-up: method as in S-inhibitor catalog; settings: vendor brief description; ref S-inhibitor catalog; cited from earlier work
NAMPT = settings: read-out: IC50, NAMPT; vendor brief description; ref S-inhibitor catalog; cited from earlier work
cIAP2 = target: cIAP2; set-up: method as in S-inhibitor catalog; settings: vendor brief description; ref S-inhibitor catalog; cited from earlier work
cIAP1 = target: cIAP1; set-up: method as in S-inhibitor catalog; settings: vendor brief description; ref S-inhibitor catalog; cited from earlier work
XIAP = target: XIAP; set-up: method as in S-inhibitor catalog; settings: vendor brief description; ref S-inhibitor catalog; cited from earlier work
HER1 = tested on: HER1; set-up: method as in library vendor description; settings: ref library vendor description; cited from earlier work
HER2 [2] = tested on: HER2; set-up: method as in library vendor description; settings: ref library vendor description; cited from earlier work
CHO-hSGLT2 = tested on: CHO-hSGLT2; set-up: method as in S-inhibitor catalog; settings: vendor brief description; ref S-inhibitor catalog; cited from earlier work
CHO-rSGLT2 = tested on: CHO-rSGLT2; set-up: method as in S-inhibitor catalog; settings: vendor brief description; ref S-inhibitor catalog; cited from earlier work
CHO-mSGLT2 = tested on: CHO-mSGLT2; set-up: method as in S-inhibitor catalog; settings: vendor brief description; ref S-inhibitor catalog; cited from earlier work
B-RafV600E = tested on: B-RafV600E; set-up: method as in vendor brief description; settings: ref vendor brief description; cited from earlier work
B-Raf = tested on: B-Raf; set-up: method as in vendor brief description; settings: ref vendor brief description; cited from earlier work
c-Raf = tested on: c-Raf; set-up: method as in vendor brief description; settings: ref vendor brief description; cited from earlier work
rhCETP = tested on: rhCETP; set-up: method as in S-inhibitor catalog; settings: vendor brief description; ref S-inhibitor catalog; cited from earlier work
PKCβ = tested on: PKCβ; set-up: method as in library vendor description; settings: ref library vendor description; cited from earlier work
PKCγ = tested on: PKCγ; set-up: method as in library vendor description; settings: ref library vendor description; cited from earlier work
PKCε = tested on: PKCε; set-up: method as in library vendor description; settings: ref library vendor description; cited from earlier work
PKCα = tested on: PKCα; set-up: method as in library vendor description; settings: ref library vendor description; cited from earlier work
Akt3 = tested on: Akt3; set-up: method as in vendor brief description; settings: ref vendor brief description; cited from earlier work
Akt1 = tested on: Akt1; set-up: method as in vendor brief description; settings: ref vendor brief description; cited from earlier work
FAAH [3] = tested on: FAAH; set-up: method as in vendor brief description; settings: human; ref vendor brief description; cited from earlier work
FAAH [4] = tested on: FAAH; set-up: method as in vendor brief description; settings: rat; ref vendor brief description; cited from earlier work
FPTase (H-ras) = target: FPTase (H-ras); set-up: method as in S-inhibitor catalog; settings: vendor brief description; ref S-inhibitor catalog; cited from earlier work
FPTase (K-ras-4B) = target: FPTase (K-ras-4B); set-up: method as in S-inhibitor catalog; settings: vendor brief description; ref S-inhibitor catalog; cited from earlier work
FPTase (N-ras) = target: FPTase (N-ras); set-up: method as in S-inhibitor catalog; settings: vendor brief description; ref S-inhibitor catalog; cited from earlier work
integrase (IN) = target: integrase (IN); set-up: method as in S-inhibitor catalog; settings: vendor brief description; ref S-inhibitor catalog; cited from earlier work
INR263K = tested on: INR263K; set-up: method as in S-inhibitor catalog; settings: vendor brief description; ref S-inhibitor catalog; cited from earlier work
Flt1 = tested on: Flt1; set-up: method as in S-inhibitor catalog; settings: vendor brief description; ref S-inhibitor catalog; cited from earlier work
c-Met = tested on: c-Met; set-up: method as in S-inhibitor catalog; settings: vendor brief description; ref S-inhibitor catalog; cited from earlier work
in vitro = settings: human, Host viability (%) mean
Flt3 = tested on: Flt3; set-up: method as in S-inhibitor catalog; settings: vendor brief description; ref S-inhibitor catalog; cited from earlier work
Mer = tested on: Mer; set-up: method as in S-inhibitor catalog; settings: vendor brief description; ref S-inhibitor catalog; cited from earlier work
Ron = tested on: Ron; set-up: method as in S-inhibitor catalog; settings: vendor brief description; ref S-inhibitor catalog; cited from earlier work
FGFR3 = tested on: FGFR3; set-up: method as in S-inhibitor catalog; settings: vendor brief description; ref S-inhibitor catalog; cited from earlier work
FGFR2 = tested on: FGFR2; set-up: method as in S-inhibitor catalog; settings: vendor brief description; ref S-inhibitor catalog; cited from earlier work
PDGFRβ = tested on: PDGFRβ; set-up: method as in S-inhibitor catalog; settings: vendor brief description; ref S-inhibitor catalog; cited from earlier work
FGFR1 = settings: read-out: IC50, FGFR1; vendor brief description; ref S-inhibitor catalog; cited from earlier work
IGF-1R = tested on: IGF-1R; set-up: method as in vendor brief description; settings: ref vendor brief description; cited from earlier work
FAK = tested on: FAK; set-up: method as in vendor brief description; settings: ref vendor brief description; cited from earlier work
HDAC2 = tested on: HDAC2; set-up: method as in S-inhibitor catalog; settings: vendor brief description; ref S-inhibitor catalog; cited from earlier work
DNA methyltransferase = target: DNA methyltransferase; set-up: method as in vendor brief description; settings: ref vendor brief description; cited from earlier work
PKCθ = target: PKCθ; set-up: method as in S-inhibitor catalog; settings: vendor brief description; ref S-inhibitor catalog; cited from earlier work
HER2 [5] = settings: vendor brief description; ref S-inhibitor catalog; cited from earlier work
EGFR = tested on: EGFR; set-up: method as in S-inhibitor catalog; settings: vendor brief description; ref S-inhibitor catalog; cited from earlier work
GSK3 = tested on: GSK3; set-up: method as in vendor brief description; settings: ref vendor brief description; cited from earlier work
CETP = tested on: CETP; set-up: method as in S-inhibitor catalog; settings: vendor brief description; ref S-inhibitor catalog; cited from earlier work
mGlu5 = tested on: mGlu5; set-up: method as in S-inhibitor catalog; settings: vendor brief description; ref S-inhibitor catalog; read-out: EC50, mGlu5 allosteric modulator; cited from earlier work
JAK2 = tested on: JAK2; set-up: method as in S-inhibitor catalog; settings: in HEL cells; vendor brief description; ref S-inhibitor catalog; cited from earlier work
Stat3 = tested on: Stat3; set-up: method as in S-inhibitor catalog; settings: in HEL cells; vendor brief description; ref S-inhibitor catalog; cited from earlier work
[6] = read-out: Parasite inhibition (%) mean, preliminary screen of compound library, mean
[7] = read-out: Parasite inhibition (%) mean, preliminary screen, mean

COc1cc(NC(=O)c2ccc(-c3ccc(Cl)cc3)o2)cc(OC)c1 [A-803467]
inhibition of growth at 5 µM [1, 6]: 0.3%
IC50 (NaV1.8 channel): 8 nM

O=C(/C=C/c1cccnc1)NCCCCC1CCN(C(=O)c2ccccc2)CC1 [APO866 (FK866)]
inhibition of growth at 5 µM [1, 6]: 10.4%

CN[C@@H](C)C(=O)N[C@H]1CN(C(=O)CC(C)C)CC[C@H]2CC[C@@H](C(=O)NC(c3ccccc3)c3ccccc3)N2C1=O [AT-406]
inhibition of growth at 5 µM [1, 6]: 33.5%
Ki (cIAP2): 5.1 nM
Ki (cIAP1): 1.9 nM
Ki (XIAP): 66.4 nM

Cc1c(NC(=O)OC[C@@H]2COCCN2)cn2ncnc(Nc3ccc4c(cnn4Cc4cccc(F)c4)c3)c12 [BMS-599626 (AC480)]
inhibition of growth at 5 µM [1, 7]: 39.6%
IC50 (HER1): 20 nM
IC50 (HER2 [2]): 30 nM

Cc1ccc([C@@H]2O[C@H](CO)[C@@H](O)[C@H](O)[C@H]2O)cc1Cc1ccc(-c2ccc(F)cc2)s1 [Canagliflozin]
inhibition of growth at 5 µM [1, 6]: 0.5%
IC50 (CHO-hSGLT2): 4.4 nM
IC50 (CHO-rSGLT2): 3.7 nM
IC50 (CHO-mSGLT2): 2 nM

CC(C)(C)c1nc(-c2cccc(NS(=O)(=O)c3c(F)cccc3F)c2F)c(-c2ccnc(N)n2)s1 [Dabrafenib (GSK2118436)]
inhibition of growth at 5 µM [1, 6]: 0.8%
IC50 (c-Raf): 5 nM

CCC(CC)CC1(C(=O)Nc2ccccc2SC(=O)C(C)C)CCCCC1 [Dalcetrapib (JTT-705)]
inhibition of growth at 5 µM [1, 6]: 0.4%
IC50 (rhCETP): 200 nM

Cn1cc(C2=C(c3cn(C4CCN(Cc5ccccn5)CC4)c4ccccc34)C(=O)NC2=O)c2ccccc21 [Enzastaurin (LY317615)]
IC50 (PKCβ): 6 nM
inhibition of growth at 5 µM [1, 7]: 11.4%

CC(C)NC[C@@H](C(=O)N1CCN(c2ncnc3c2[C@H](C)C[C@H]3O)CC1)c1ccc(Cl)cc1 [GDC-0068]
inhibition of growth at 5 µM [1, 6]: 35.4%

O=C(Nc1ccccc1)N1CCN(c2nc(-c3ccccc3)ns2)CC1 [JNJ 1661010]
inhibition of growth at 5 µM [1, 6]: 10.5%
IC50 (FAAH [3]): 12 nM
IC50 (FAAH [4]): 10 nM

NC(=O)N1CCC(CC(=O)N2CCC([C@H]3c4ncc(Br)cc4CCc4cc(Cl)cc(Br)c43)CC2)CC1 [Lonafarnib (SCH66336)]
inhibition of growth at 5 µM [1, 6]: 0.4%
IC50 (FPTase (H-ras)): 1.9 nM
IC50 (FPTase (K-ras-4B)): 5.2 nM
IC50 (FPTase (N-ras)): 2.8 nM

CCN1C[C@@H](C)n2c(c(O)c3c(=O)n(Cc4ccc(F)c(Cl)c4)nc(C(=O)NC)c32)C1=O [MK-2048]
IC50 (integrase (IN)): 2.6 nM
inhibition of growth at 5 µM [1, 6]: 1%
IC50 (INR263K): 1.5 nM

CN(C[C@@H]1COCCO1)S(=O)(=O)Nc1ccc2ccc3ncc(-c4cnn(C)c4)cc3c(=O)c2c1 [MK-2461]
IC50 (Flt1): 10 nM
inhibition of growth at 5 µM [1, 6]: 79.8%
IC50 (c-Met): 2.5 nM
viability at 72 h (in vitro): 60.3%
IC50 (Flt3): 22 nM
IC50 (Mer): 24 nM
IC50 (Ron): 7 nM
IC50 (FGFR3): 50 nM
IC50 (FGFR2): 39 nM
IC50 (PDGFRβ): 22 nM
IC50 (FGFR1): 65 nM

CNC(=O)c1ccccc1Nc1nc(Nc2ccc(N3CCOCC3)cc2OC)ncc1Cl [NVP-TAE226]
inhibition of growth at 5 µM [1, 6]: 66.8%
IC50 (FAK): 5.5 nM

COc1ccc(-c2nc(N3CCOCC3)c3sc(CN(C)c4ncc(C(=O)NO)cn4)cc3n2)cn1 [PI3K/HDAC Inhibitor I]
inhibition of growth at 5 µM [1, 6]: 78.4%
viability at 72 h (in vitro): 72.1%
IC50 (HDAC2): 5 nM

O=C(O)[C@H](Cc1c[nH]c2ccccc12)N1C(=O)c2ccccc2C1=O [RG108]
IC50 (DNA methyltransferase): 115 nM
inhibition of growth at 5 µM [1, 6]: 2.5%

CN1CCN(c2nc(C3=C(c4c[nH]c5ccccc45)C(=O)NC3=O)c3ccccc3n2)CC1 [Sotrastaurin (AEB071)]
Ki (PKCθ): 0.22 nM
inhibition of growth at 5 µM [1, 6]: 40.4%

CC(C)(O)CC(=O)NCCn1ccc2ncnc(Nc3ccc(Oc4cccc(C(F)(F)F)c4)c(Cl)c3)c21 [TAK-285]
inhibition of growth at 5 µM [1, 6]: -12.2%
IC50 (HER2 [5]): 17 nM

O=c1sn(-c2cccc3ccccc23)c(=O)n1Cc1ccccc1 [Tideglusib]
inhibition of growth at 5 µM [1, 6]: 52.8%

CCOC(=O)N1c2ccc(C(F)(F)F)cc2[C@H](N(Cc2cc(C(F)(F)F)cc(C(F)(F)F)c2)C(=O)OC)C[C@H]1CC [Torcetrapib (CP-529414)]
IC50 (CETP): 37 nM
inhibition of growth at 5 µM [1, 6]: 22.1%

CCCCOc1ccc(C(=O)Nc2ccc(F)cc2F)cc1 [VU 0357121]
inhibition of growth at 5 µM [1, 6]: 0.1%
EC50 (mGlu5): 33 nM

C[C@H](NC(=O)/C(C#N)=C/c1cccc(Br)n1)c1ccccc1 [WP1066]
inhibition of growth at 5 µM [1, 6]: -8.7%
IC50 (JAK2): 2300 nM
IC50 (Stat3): 2430 nM
